Test results reported in patent US12708630B2, “Combined therapy of 4′-thio-5-aza-2′-deoxycytidine and Venetoclax” (PINOTBIO, INC., priority 2021, dated 2026).

How the values were obtained:
Experiment in all cases: drug activity profiling cytotoxicity
Type in all cases: cell-based
[1] = tested on: Hs 821.T; conditions: Hs 821.T cell line, Sarcoma; read-out: Aza-T-dCyd IC50
Procedure, shortened: (§1)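 Read-out is cytotoxicity from drug activity profiling of Aza-T-dCyd, run over 200 cell lines.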

[2] = tested on: A204; conditions: Homo sapiens; A204 cell line, Sarcoma; read-out: Aza-T-dCyd IC50
Procedure, shortened: as §1

[3] = tested on: DMS114; conditions: Homo sapiens, DMS-114; DMS114 cell line, Lung (SCLC); read-out: Aza-T-dCyd IC50
Procedure, shortened: as §1

[4] = tested on: SW403; conditions: Homo sapiens, SW-403; SW403 cell line, Colon; read-out: Aza-T-dCyd IC50
Procedure, shortened: as §1

[5] = tested on: OE19; conditions: Homo sapiens; OE19 cell line, Head and Neck; read-out: Aza-T-dCyd IC50
Procedure, shortened: as §1

[6] = tested on: HuCCT1; conditions: Homo sapiens, HuCCT-1; HuCCT1 cell line, Liver; read-out: Aza-T-dCyd IC50
Procedure, shortened: as §1

[7] = tested on: DBTRG-05MG; conditions: Homo sapiens; DBTRG-05MG cell line, CNS (Glioma); read-out: Aza-T-dCyd IC50
Procedure, shortened: as §1

[8] = tested on: WM-266-4; conditions: Homo sapiens; WM-266-4 cell line, Skin (Melanoma); read-out: Aza-T-dCyd IC50
Procedure, shortened: as §1

[9] = tested on: Hs 578T; conditions: Homo sapiens; Hs 578T cell line, Breast; read-out: Aza-T-dCyd IC50
Procedure, shortened: as §1

[10] = tested on: A-704; conditions: Homo sapiens, A704; A-704 cell line, Kidney; read-out: Aza-T-dCyd IC50
Procedure, shortened: as §1

[11] = tested on: MES-SA; conditions: Homo sapiens; MES-SA cell line, Sarcoma; read-out: Aza-T-dCyd IC50
Procedure, shortened: as §1

[12] = tested on: Hs 746T; conditions: Homo sapiens, Hs746T; Hs 746T cell line, Stomach; read-out: Aza-T-dCyd IC50
Procedure, shortened: as §1

[13] = tested on: MDA MB 231; conditions: Homo sapiens; MDA MB 231 cell line, Breast; read-out: Aza-T-dCyd IC50
Procedure, shortened: as §1

[14] = tested on: A375; conditions: Homo sapiens, A-375; A375 cell line, Skin (Melanoma); read-out: Aza-T-dCyd IC50
Procedure, shortened: as §1

[15] = tested on: WiDr; conditions: Homo sapiens; WiDr cell line, Colon; read-out: Aza-T-dCyd IC50
Procedure, shortened: as §1

[16] = tested on: Detroit 562; conditions: Homo sapiens; Detroit 562 cell line, Head and Neck; read-out: Aza-T-dCyd IC50
Procedure, shortened: as §1

[17] = tested on: L-428; conditions: Homo sapiens; L-428 cell line, Hodgkin's lymphoma; read-out: Aza-T-dCyd IC50
Procedure, shortened: as §1

[18] = tested on: SU-DHL-10; conditions: Homo sapiens, SU-DHL10; SU-DHL-10 cell line, B-cell lymphoma; read-out: Aza-T-dCyd IC50
Procedure, shortened: as §1

[19] = tested on: MS751; conditions: MS751 cell line, Female GU (Cervix); read-out: Aza-T-dCyd IC50
Procedure, shortened: as §1

[20] = tested on: U-118 MG; conditions: Homo sapiens; U-118 MG cell line, CNS (Glioma); read-out: Aza-T-dCyd IC50
Procedure, shortened: as §1

[21] = tested on: SCaBER; conditions: Homo sapiens; SCaBER cell line, Bladder; read-out: Aza-T-dCyd IC50
Procedure, shortened: as §1

[22] = tested on: HuP-T4; conditions: Homo sapiens; HuP-T4 cell line, Pancreas; read-out: Aza-T-dCyd IC50
Procedure, shortened: as §1

[23] = tested on: LS1034; conditions: Homo sapiens, LS-1034; LS1034 cell line, Colon; read-out: Aza-T-dCyd IC50
Procedure, shortened: as §1

[24] = tested on: COR-L23; conditions: Homo sapiens; COR-L23 cell line, Lung (NSCLC); read-out: Aza-T-dCyd IC50
Procedure, shortened: as §1

[25] = tested on: A7; conditions: A7 cell line, Skin (Melanoma); read-out: Aza-T-dCyd IC50
Procedure, shortened: as §1

[26] = tested on: AsPC-1; conditions: Homo sapiens, ASPC1; AsPC-1 cell line, Pancreas; read-out: Aza-T-dCyd IC50
Procedure, shortened: as §1

[27] = tested on: A549; conditions: Homo sapiens; A549 cell line, Lung (NSCLC); read-out: Aza-T-dCyd IC50
Procedure, shortened: as §1

[28] = tested on: SK-MEL-3; conditions: Homo sapiens, SK-MEL3; SK-MEL-3 cell line, Skin (Melanoma); read-out: Aza-T-dCyd IC50
Procedure, shortened: as §1

[29] = tested on: BT474; conditions: Homo sapiens, BT-474; BT474 cell line, Breast; read-out: Aza-T-dCyd IC50
Procedure, shortened: as §1

[30] = tested on: DMS53; conditions: Homo sapiens, DMS-53; DMS53 cell line, Lung (SCLC); read-out: Aza-T-dCyd IC50
Procedure, shortened: as §1

Nc1ncn([C@H]2CC(O)[C@@H](CO)S2)c(=O)n1 (stereo partly drawn) [Aza-T-dCyd, 4′-thio-5-aza-2′-deoxycytidine]
IC50 [1]: > 10000 nM
IC50 [2]: 157 nM
IC50 [3]: 2200 nM
IC50 [4]: 619 nM
IC50 [5]: > 10000 nM
IC50 [6]: 105 nM
IC50 [7]: > 10000 nM
IC50 [8]: 429 nM
IC50 [9]: > 10000 nM
IC50 [10]: > 10000 nM
IC50 [11]: 135 nM
IC50 [12]: 666 nM
IC50 [13]: 210 nM
IC50 [14]: 66.7 nM
IC50 [15]: 263 nM
IC50 [16]: 81.1 nM
IC50 [17]: 365 nM
IC50 [18]: 36.6 nM
IC50 [19]: > 10000 nM
IC50 [20]: > 10000 nM
IC50 [21]: 187 nM
IC50 [22]: 321 nM
IC50 [23]: 1410 nM
IC50 [24]: 94.4 nM
IC50 [25]: 1190 nM
IC50 [26]: 2120 nM
IC50 [27]: 190 nM
IC50 [28]: 522 nM
IC50 [29]: > 10000 nM
IC50 [30]: 4220 nM
